In the supplement of paper PMC10307832:

How the values were obtained:
Assay in all cases: relative viability (nuclei count vs DMSO), 5 days (fraction); higher = more cells survive
[1] = compound: Cn1c(=O)n(-c2ccc(C(C)(C)C#N)cc2)c2c3cc(-c4cnc5ccccc5c4)ccc3ncc21 [Dactolisib] + COc1cccc2cc(-c3nc([C@H]4CC[C@H](C(=O)O)CC4)n4ncnc(N)c34)[nH]c12 [OSI-027] (partner 0.5 µM)
Procedure, shortened: (§1)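 Lung cancer cell lines were seeded in 1536-well plates and dosed by pin tool the next day, with either a single drug or a fixed anchor-drug dose combined with five library-drug doses (not always all listed) spaced in √10 steps. Five days later, one step fixed the cells and stained their nuclei (final 0.05% Triton X-100, 1% formaldehyde, 1 ug/ml Hoechst), and nuclei were counted on 4× images. Relative viability is the nuclei count in treated wells divided by the count in vehicle wells, and each value is the median of duplicate plates.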

[2] = compound: Cn1c(=O)n(-c2ccc(C(C)(C)C#N)cc2)c2c3cc(-c4cnc5ccccc5c4)ccc3ncc21 [Dactolisib] + C[C@@H](Oc1cc(-c2cnn(C3CCNCC3)c2)cnc1N)c1c(Cl)ccc(F)c1Cl [Crizotinib] (partner 1 µM)
Procedure, shortened: as §1

[3] = compound: C1CCC(CC1)N(CCNCCC2=C3C(=C(C=C2)O)NC(=O)CO3)C(=O)CCNCCC4=CC(=C(C=C4)Cl)Cl [AZ505] + O=C(c1cc(Cc2n[nH]c(=O)c3ccccc23)ccc1F)N1CCN(C(=O)C2CC2)CC1 [Olaparib] (partner 8 µM)
Procedure, shortened: as §1

[4] = compound: Cn1c(=O)n(-c2ccc(C(C)(C)C#N)cc2)c2c3cc(-c4cnc5ccccc5c4)ccc3ncc21 [Dactolisib] + CC(=O)Nc1cccc(-n2c(=O)n(C3CC3)c(=O)c3c(Nc4ccc(I)cc4F)n(C)c(=O)c(C)c32)c1 [Trametinib] (partner 0.02 µM)
Procedure, shortened: as §1

Row | Cell Line | relative viability ([1]; first compound 0.002 µM) | relative viability ([1]; first compound 0.006325 µM) | relative viability ([1]; first compound 0.02 µM) | relative viability ([1]; first compound 0.06325 µM) | relative viability ([1]; first compound 0.2 µM) | relative viability ([2]; first compound 0.002 µM) | relative viability ([2]; first compound 0.006325 µM) | relative viability ([2]; first compound 0.02 µM) | relative viability ([2]; first compound 0.06325 µM) | relative viability ([2]; first compound 0.2 µM) | relative viability ([3]; first compound 0.08 µM) | relative viability ([3]; first compound 0.253 µM) | relative viability ([3]; first compound 0.8 µM) | relative viability ([3]; first compound 2.53 µM) | relative viability ([3]; first compound 8 µM) | relative viability ([4]; first compound 0.002 µM) | relative viability ([4]; first compound 0.006325 µM) | relative viability ([4]; first compound 0.02 µM) | relative viability ([4]; first compound 0.06325 µM) | relative viability ([4]; first compound 0.2 µM)
1 | NCI-H1755 | 0.821 | 0.772 | 0.8 | 0.683 | 0.542 | 0.931 | 0.802 | 0.823 | 0.596 | 0.438 | 0.82 | 0.849 | 0.92 | 0.885 | 0.868 | 0.779 | 0.759 | 0.724 | 0.611 | 0.486
2 | NCI-H661 | 0.701 | 0.759 | 0.652 | 0.366 | 0.339 | 0.987 | 0.979 | 1.14 | 0.779 | 0.613 | 0.732 | 0.751 | 0.728 | 0.709 | 0.727 | 0.552 | 0.483 | 0.486 | 0.336 | 0.337
3 | HARA | 0.576 | 0.525 | 0.602 | 0.322 | 0.264 | 1.12 | 1.02 | 1.04 | 1.01 | 0.421 | 0.451 |  | 0.734 | 0.631 | 0.761 | 0.872 | 0.549 | 0.732 | 0.259 | 0.218
4 | NCI-H596 | 0.694 | 0.653 | 0.692 | 0.399 | 0.315 | 0.974 | 0.874 | 0.742 | 0.595 | 0.395 | 0.743 |  | 0.704 | 0.722 | 0.598 | 0.776 | 0.7 | 0.496 | 0.491 | 0.298
5 | NCI-H23 | 0.683 | 0.577 | 0.564 | 0.308 | 0.385 | 0.455 | 0.408 | 0.614 | 0.357 | 0.257 | 0.256 | 0.362 | 0.305 | 0.364 | 0.337 | 0.468 | 0.361 | 0.276 | 0.229 | 0.179
6 | LCLC-97TM1 | 0.673 | 0.564 | 0.542 | 0.717 | 0.459 | 0.509 | 0.373 | 0.277 | 0.149 | 0.145 | 0.326 | 0.471 | 0.369 |  | 0.595 | 0.2 | 0.187 | 0.167 | 0.135 | 0.104
7 | EPLC-272H | 0.34 | 0.288 | 0.356 | 0.334 | 0.3 | 0.949 | 0.564 | 0.647 | 0.494 | 0.483 | 0.638 | 0.664 | 0.654 | 0.782 | 0.628 | 0.264 | 0.261 | 0.28 | 0.245 | 0.201
8 | NCI-H1915 | 0.723 | 0.704 | 0.716 | 0.535 | 0.418 | 0.889 | 0.903 | 0.916 | 0.713 | 0.529 | 0.259 | 0.272 | 0.247 | 0.272 | 0.257 | 0.32 | 0.296 | 0.304 | 0.229 | 0.178
9 | NCI-H2405 | 0.67 | 0.652 | 0.685 | 0.543 | 0.464 | 0.758 | 0.867 | 0.849 | 0.541 | 0.38 | 0.742 |  | 0.758 | 0.788 | 0.828 | 0.469 | 0.665 | 0.56 | 0.389 | 0.253
10 | NCI-H322M | 0.542 | 0.56 | 0.562 | 0.535 | 0.515 | 0.827 | 1.02 | 0.863 | 0.684 | 0.641 | 0.576 |  | 0.707 | 0.768 | 0.844 | 0.583 | 0.561 | 0.447 | 0.436 | 0.44
11 | NCI-H2170 | 0.763 | 0.639 | 0.689 | 0.543 | 0.37 | 1.2 | 1.17 | 0.832 | 0.677 | 0.331 | 0.544 | 0.601 | 0.614 | 0.58 | 0.594 | 0.925 | 0.881 | 0.845 | 0.478 | 0.35
12 | NCI-H358 | 0.805 | 0.683 | 0.585 | 0.254 | 0.173 | 0.702 | 0.705 | 0.738 | 0.391 | 0.189 | 0.569 | 0.761 | 0.584 | 0.604 | 0.59 | 0.123 | 0.149 | 0.124 | 0.104 | 0.106
13 | NCI-H838 | 0.424 | 0.477 | 0.317 | 0.252 | 0.274 | 0.798 | 0.586 | 0.534 | 0.275 | 0.216 | 0.688 | 0.765 | 0.744 | 0.787 | 0.776 | 0.456 | 0.35 | 0.34 | 0.179 | 0.145
14 | CAL-12T | 0.894 | 0.635 | 0.521 | 0.318 | 0.239 | 0.624 | 0.661 | 0.425 | 0.216 | 0.215 | 0.588 | 0.777 | 0.736 | 0.706 | 0.696 | 0.343 | 0.312 | 0.248 | 0.213 | 0.184
